The values that follow come from patent publication US12390423B2 (priority 2019, dated 2025).

The subject of series [1] is INS-1 (832/13) cells. Nature of the series: Fatty acid oxidation ([1-14C]-palmitate) in INS-1 (832/13) cells. The settings on record: 25 μM AvoB, 0.5 mM palmitate-BSA/1 mM L-carnitine, 24 h. It counts as cell-based, rat. The protocol: FAO in cell lines was determined using established methods. […] [1-^14C]-palmitate was prepared and applied to cells as follows: purchased stock supplied in ethanol (PerkinElmer, MA, USA) was dried in vacuo and then re-suspended in a solution containing unlabeled carrier in BSA to yield a mixture of 7% BSA [w/v], 2.5 mM palmitate with [1-^14C]-palmitate at a final concentration of 10 μCi/mL. Following a 16 hour incubation at 37° C., the solution containing radiolabeled palmitate was diluted with respective serum free cell culture media (low glucose RPMI media for INS-1 (832/13) cells and low glucose DMEM for C2C12 myotubes) containing 1 mM L-carnitine to a final concentration of 0.3% BSA, 100 μM palmitate, and 0.4 μCi/mL [1-^14C]-palmitate. Following incubation of treated cells with [1-^14C]-palmitate, 400 μL of well media was transferred to acidification vials containing perchloric acid and capped with CO2 filter traps impregnated with 1M NaOH. […] The CO2 trap was transferred to scintillation vials containing 4 mL of scintillation fluid and complete FAO was quantified using a Tri-Carb 2910 TR liquid scintillation analyzer (PerkinElmer). The amount of radioactivity in the media was also determined after pelleting cells and debris (14,000×g, 10 min); this quantified acid soluble metabolites (ASMs), an indirect measure of incomplete FAO.

Series [2] deals with INS-1 (832/13) cells. The series can be described thus: High resolution respirometry in INS-1 (832/13) cells. In kind it is cell-based, rat. The protocol:
Cells treated with test compounds for 24 h were trypsinized, counted, and resuspended in phosphate buffer saline (PBS). High-resolution O2 consumption measurements were conducted in 2 ml of respiration medium (PBS, pH 7.5, stir speed 750 rpm) using the Oroboros Oxygraph-2k (Oroboros Instruments, Corp., Innsbruck, Austria) set to 37° C. with a gain of 2 in both chambers. Briefly, after the injection of 5 million treated INS-1 (832/13) cells or C2C12 myotubes per chamber, basal respiration was measured once steady-state respiratory flux was obtained; this represents coupled respiration fueled by available substrates from the incubation with test compounds. Uncoupled respiration was then measured following addition of the ATP synthase inhibitor oligomycin (0.25 μM). This was followed by measuring maximal respiratory rate by stepwise titration of carbonyl cyanide p-trifluoromethoxy phenyl hydrazone (FCCP; within 0.1-0.25 μM) in the presence of 1 mmol/L pyruvate. Finally, respiration was inhibited by addition of rotenone (0.5 μM; complex I inhibitor) to obtain extra-mitochondrial residual oxygen consumption. Data was recorded with DatLab software (Oroboros Instruments, Innsbruck, Austria), oxygen consumption at each step of the protocol was normalized to vehicle control and illustrated in histograms. For all HRR protocols, cell viability was determined after trypsinization and also after end of HRR runs via trypan blue cell staining and counting using a hemocytometer. No significant differences in cell viability between control and treated cells were observed.
Additionally, to indirectly assess metabolic flexibility, cells were treated the same way as described, collected and subjected to a 15 min treatment of 10 mM D-glucose before being washed and injected into the respirometer; these experiments were done to assess if cells incubated in low glucose/high fat conditions for 24 h can easily switch to glucose utilization upon acute incubation with D-glucose.

Series [3] deals with INS-1 (832/13) cells. Nature of the series: Cellular ATP content in INS-1 (832/13) cells. In kind it is cell-based, rat. The settings on record: 25 μM AvoB, palmitate challenged, 24 h. As for the experimental part:
Total cellular ATP content was determined using the ATP bioluminescent assay kit (Calbiochem, 119107). Briefly, cells were seeded in white walled 96-well plates (1.2×10^4 cells/well for INS-1 and 2×10^4 cells/well for C2C12) and treated for 24 h (C2C12 cells were differentiated for 5 days prior to treatments whereas INS-1 cells were treated 24 h after seeding). After treatment, culture media was removed, and cells were lysed with nucleotide releasing buffer with gentle shaking for 5 min. ATP monitoring enzyme was then added to cell lysates and plates and luminescence was read in a Biotek Synergy HT spectrophotometer (Biotek; Winooski, VT).

Series [4] concerns INS-1 (832/13) cells. The series can be described thus: Cytosolic calcium determination (fluo-3AM) in INS-1 (832/13) cells. The settings on record: 0.5 mM palmitate, non-stimulatory glucose, AvoB 25 μM, ETO 100 μM, TMB-8 10 μM. In kind it is cell-based, rat. The protocol:
INS-1 (832/13) cells were treated as described for the FAO assays but also with metabolic modulators dichloroacetate (DCA) (1 mM) and trimetazidine (25 μM) as well as 10 μM endoplasmic reticulum calcium blocker 8-(N,N-Diethylamino)-octyl-3,4,5-trimethoxybenzoate HCl (TMB-8) (Sigma Aldrich) or 25 nM cyclosporin (Sigma Aldrich) in the presence of 0.5 mM palmitate/1 mM L-carnitine. Cytosolic calcium was measured in INS-1 (832/13) cells using fluo-3AM (Invitrogen, F1241) charged fluorescent dye that accumulates in the cytosol and emits green fluorescence after binding calcium ions. A stock solution of 10 mM fluo-3AM was diluted to 5 μM in fluo-3AM loading buffer (10 mM 4-(2-hydroxyethyl)-1-piperazineethanesulfonic acid (HEPES), 137 mM NaCl, […], 1 mM Na2HPO4, 5 mM glucose, and 0.5 mM MgCl2 (pH 7.4)]. After treatment, cells were incubated in fluo-3AM loading buffer for 30 min at 37° C. with gentle agitation after which cells were washed twice with PBS, trypsinized and collected for flow cytometry analysis. Cytosolic calcium was quantified by taking the mean green fluorescence values of live gated cells and normalizing to vehicle control.

Series [5] deals with INS-1 (832/13) cells. Nature of the series: Cell viability (propidium iodide, flow cytometry) in INS-1 (832/13) cells. In kind it is cell-based. The settings on record: AvoB 24 h. As for the experimental part: Quantitative analysis of cell death was evaluated by flow cytometry using propidium iodide staining (Biovision, Mountainview, CA), where specified, according to the manufacturer's protocol and as previously described^28. Viable cells were identified as PI negative (PI−).

Series [6] can be described thus: Avocatin B oral consumption pilot clinical study (Phase I, NCT03898505).
Experimental: A single center, double-blind, placebo-controlled, randomized, pilot clinical study was executed to determine the safety of consuming 50 mg (equivalent to consuming a quarter Hass avocado pulp) or 200 mg (equivalent to consuming one Hass avocado pulp) AvoB per day for 60 days in healthy human participants (NCT03898505).
The investigational product was approved by Health Canada (natural product number (NPN) 80074296). To create the product, freeze-dried avocado pulp powder was sourced from Avocado Oil New Zealand Ltd., (Tauranga, New Zealand) and tested for absolute quantities of AvoB per gram of powder using a validated analytical method^61. Clinical trial material was then standardized to contain low dose (50 mg) or high dose (200 mg) AvoB (FIG. 9). The placebo product was formulated similarly to the investigational product except it only contained the non-medicinal food-grade ingredients used in the test product and other excipients that were used to simulate appearance, smell, texture and taste of the investigational product. Participants in every group consumed 40 g of material per day for 60 days by dissolving/blending the product in 12-16 ounces of a smoothie like diluent (e.g., milk (with or without lactose), soy milk, coconut milk, or fruit juice of the participant's choice). All three products were approximately matched for total calories per serving.
Healthy volunteers (13 males and 17 females; age range 20-54 years, BMI range 19.1-29.9) were enrolled in the study. Exclusion criteria were: presence of active clinical disease and history of diabetes, hypertension, dyslipidemia, major depressive disorders, chronic liver disorders, kidney disorders, or blood disorders. […] Primary outcome was the analysis of adverse experiences (AEs) measured throughout the study. Secondary outcomes were to ascertain safety and tolerability which were assessed through clinically relevant changes in standard laboratory evaluations (blood chemistry and hematology) measured on days 0, 30 and 60. Body mass index (BMI) and glycated hemoglobin (HbA1c) were also measured as part of secondary outcomes. […]
Mean change from baseline at day 30 and 60 for all laboratory evaluations and body weight were analysed by the non-parametric Kruskal-Wallis—One-Way Analysis of Variance on Ranks. using GraphPad Prism 6.0 (GraphPad Software, USA) where differences with p<0.05 were considered to be statistically significant. AEs were tabulated (for all randomized patients who received at least one dose of study supplements) and analyzed using Fisher's exact test of independence in Statistical Analysis System (SAS) university edition where differences with p<0.05 were considered to be statistically significant.

Entries after “also recorded” stand apart in the source; their conditions may differ.

Regarding avocatin B [AvoB], the “Complete FAO ([1-14C]-palmitate oxidation to CO2)” value in the series on INS-1 (832/13) cells [1] is recorded as “inhibited complete FAO”. Also, the “Respiration after 10 mM glucose challenge (HRR, metabolic flexibility)” value with INS-1 (832/13) cells [2] (25 μM AvoB, 0.25 mM palmitate 24 h, then 10 mM glucose 15 min, vs palmitate-only) was “increased basal and maximal respiration compared to the palmitate-only control”. Moreover, the “Palmitate supported respiration (OCR, HRR)” value in the series with INS-1 (832/13) cells [2] (25 μM AvoB, 0.25 mM palmitate-BSA/1 mM L-carnitine, 24 h) is “inhibited palmitate supported basal and maximal-uncoupled respiration”. In addition, the “Concentration imparting FAO inhibition relative to etomoxir” value in the series with INS-1 (832/13) cells [2] (AvoB 25 μM vs etomoxir 100 μM) was “four-fold lower than etomoxir”. The “Total cellular ATP content” value in the series on INS-1 (832/13) cells [3] is on record as “restores total cellular ATP content”. The “Cytosolic Ca2+ (Fluo-3AM)” value in the series with INS-1 (832/13) cells [4] was “able to reduce cytosolic Ca^2+”. The Cell viability entry in the series on INS-1 (832/13) cells [5] is “no effect on cell viability”. Besides, the “Body weight change between baseline and day 30” value in series [6] (both AvoB supplemented groups relative to placebo, trend, not statistically significant (p=0.10)) is reported as “decreases in body weight”. In addition, in series [6] (either AvoB treated group compared to placebo), the “Change from baseline in body mass index or glycated hemoglobin (HbA1c)” value is “No clinically relevant changes from baseline”. Besides, the “Overall tolerability / toxicity (adverse events)” value in series [6] (healthy human participants, 50 or 200 mg AvoB/day for 60 days) is recorded as “generally well-tolerated; also recorded: exerted no toxicity”.
